Assay results from ChEMBL document CHEMBL4138259, “Discovery of JTZ-951: A HIF Prolyl Hydroxylase Inhibitor for the Treatment of Renal Anemia” (ACS Med Chem Lett, 2017).

What was measured:
Mus musculus = assay: Upregulation of plasma EPO level in Balb/c mouse at 10 mg/kg, po administered as single dose measured after 8 hrs by ELISA; assay type: functional
in vitro = conditions: human, Caco-2
Rattus norvegicus [1] = assay: Toxicity in CD(SD) rat assessed as induction of anorexia at 100 mg/kg, po administered as single dose; assay type: organism-based; conditions: in vivo
Rattus norvegicus [2] = assay: Upregulation of plasma EPO level in CD(SD) rat at 10 mg/kg, po administered as single dose measured after 8 hrs by RIA; assay type: functional

| Papp A→B at 2 h, 25 µM (in vitro) | Structure (SMILES) | Activity (Mus musculus) | Activity (Rattus norvegicus [1]) | Activity (Rattus norvegicus [2]) |
| --- | --- | --- | --- | --- |
| 12 ×10⁻⁶ cm/s | Cl.O=C(O)CNC(=O)c1c(O)cc(CCc2ccc(F)cc2)n2ncnc12 | 1000 pg/mL |  |  |
| 8.9 ×10⁻⁶ cm/s | Cc1nc2c(C(=O)NCC(=O)O)c(O)cc(CCc3ccccc3)n2n1.Cl | <260 pg/mL |  |  |
| 0.8 ×10⁻⁶ cm/s | O=C(O)CNC(=O)c1c(O)ccn2ccnc12 |  |  |  |
| 18 ×10⁻⁶ cm/s | Cl.O=C(O)CNC(=O)c1c(O)cc(C2CCCCC2)c2ncnn12 | <450 pg/mL |  |  |
| 2.1 ×10⁻⁶ cm/s | CCCc1cc(O)c(C(=O)NCC(=O)O)c2ncnn12.Cl | <300 pg/mL |  |  |
| 20 ×10⁻⁶ cm/s | CCCCCc1cc(O)c(C(=O)NCC(=O)O)c2ncnn12.Cl | 2300 pg/mL | Toxic | 11000 pg/mL |
| 0.86 to 0.9 ×10⁻⁶ cm/s | Cl.O=C(O)CNC(=O)c1c(O)ccn2ncnc12 |  |  |  |
| 9.3 ×10⁻⁶ cm/s | Cl.O=C(O)CNC(=O)c1c(O)cc(CCc2ccccc2)c2ncnn12 | <320 pg/mL |  |  |
| 6.5 ×10⁻⁶ cm/s | Cl.O=C(O)CNC(=O)c1c(O)cc(-c2ccccc2)c2ncnn12 | <260 pg/mL |  |  |
| 0.4 ×10⁻⁶ cm/s | Cl.O=C(O)CNC(=O)c1c(O)ccc2ncnn12 |  |  |  |
